system: Boophilus microplus; assay: Boophilus microplus test (injection); assay type: in vivo; details: application rate 20 μg/animal, adult engorged females, after 7 days
Description: Solvent: dimethyl sulfoxide
To produce a suitable preparation of active compound, 10 mg of active compound are dissolved in 0.5 ml solvent, and the concentrate is diluted with solvent to the desired concentration. Five adult engorged female ticks (Boophilus microplus) are injected with compound solution into the abdomen. Ticks are transferred into replica plates and incubated in a climate chamber for a period of time. Egg deposition of fertile eggs is monitored. After 7 days mortality in % is determined 100% means that all eggs are infertile; 0% means that all eggs are fertile.

Structure (SMILES)	activity (100% means that all eggs are infertile) [%]
CCNC(=O)NCc1ccc(N2CCC(c3cc(Cl)c(Cl)c(Cl)c3)(C(F)(F)F)C2)cc1C(F)(F)F (centres unmarked) [1-330]	100
O=C(NCc1ccccn1)c1cnc(N2CCC(c3cc(C(F)(F)F)cc(C(F)(F)F)c3)(C(F)(F)F)C2)nc1C(F)(F)F (centres unmarked) [2-35]	100
O=C(NCc1cnc(N2CCC(c3cc(C(F)(F)F)cc(C(F)(F)F)c3)(C(F)(F)F)C2)nc1C(F)(F)F)C1CC1 (centres unmarked) [3-149]	100
O=C(NCc1ccc(N2CCC(c3cc(Cl)c(Cl)c(Cl)c3)(C(F)(F)F)C2)cc1Cl)C1CC1 (centres unmarked) [1-339]	100
O=C(CC(F)(F)F)NCc1ccc(N2CCC(c3cc(Cl)c(Cl)c(Cl)c3)(C(F)(F)F)C2)cc1C(F)(F)F (centres unmarked) [1-327]	100
C=CCSCC(=O)NCc1ccc(N2CCC(c3cc(Cl)c(Cl)c(Cl)c3)(C(F)(F)F)C2)cc1C(F)(F)F (centres unmarked) [1-732]	100
CCNC(=O)NCc1cnc(N2CCC(c3cc(C(F)(F)F)cc(C(F)(F)F)c3)(C(F)(F)F)C2)nc1C(F)(F)F (centres unmarked) [3-151]	100
CSCC(=O)NCc1ccc(N2CCC(c3cc(Cl)cc(Cl)c3)(C(F)(F)F)C2)cc1Cl (centres unmarked) [1-42]	100
COC(=O)NCc1ccc(N2CCC(c3cc(C(F)(F)F)cc(C(F)(F)F)c3)(C(F)(F)F)C2)cc1C(F)(F)F (centres unmarked) [1-298]	100
O=C(NCc1ccc(N2CCC(c3cc(Cl)cc(Cl)c3)(C(F)(F)F)C2)cc1C(F)(F)F)NC1CCC1 (centres unmarked) [1-227]	100
N#CCC(=O)NCc1ccc(N2CCC(c3cc(Cl)cc(Cl)c3)(C(F)(F)F)C2)cc1C(F)(F)F (centres unmarked) [1-183]	100
CCNC(=O)NCc1ccc(N2CCC(c3cc(Cl)c(Cl)c(Cl)c3)(C(F)(F)F)C2)cc1Cl (centres unmarked) [1-341]	100
CC(NC(=O)NCc1ccc(N2CCC(c3cc(Cl)cc(Cl)c3)(C(F)(F)F)C2)cc1Cl)c1nccs1 (centres unmarked) [1-446]	100
CC[S+]([O-])CC(=O)NCc1ccc(N2CCC(c3cc(Cl)cc(Cl)c3)(C(F)(F)F)C2)cc1C(F)(F)F (centres unmarked) [1-500]	100
O=C(NCc1ccc(N2CCC(c3cc(Cl)cc(Cl)c3)(C(F)(F)F)C2)cc1C(F)(F)F)C1CC1 (centres unmarked) [1-146]	100
O=C(NCc1ccccn1)NCc1ccc(N2CCC(c3cc(Cl)cc(Cl)c3)(C(F)(F)F)C2)cc1C(F)(F)F (centres unmarked) [1-254]	100
O=C(CC1CC1)NCc1ccc(N2CCC(c3cc(Cl)cc(Cl)c3)(C(F)(F)F)C2)cc1Cl (centres unmarked) [1-12]	100
CC(C)(C)OC(=O)NCc1ccc(N2CCC(c3cc(Cl)cc(Cl)c3)(C(F)(F)F)C2)cc1C(F)(F)F (centres unmarked) [1-270]	100
CCCNC(=O)NCc1ccc(N2CCC(c3cc(C(F)(F)F)cc(C(F)(F)F)c3)(C(F)(F)F)C2)cc1C(F)(F)F (centres unmarked) [1-303]	100
C[S+]([O-])CC(=O)NCc1ccc(N2CCC(c3cc(Cl)cc(Cl)c3)(C(F)(F)F)C2)cc1C(F)(F)F (centres unmarked) [1-494]	100
CC(C)C(=O)NCc1ccc(N2CCC(c3cc(Cl)cc(Cl)c3)(C(F)(F)F)C2)cc1C(F)(F)F (centres unmarked) [1-145]	100

Structure (SMILES)	activity (100% means that all eggs are infertile) [%]
O=C(CC(F)(F)F)NCc1ccc(N2CCC(c3cc(Cl)cc(Cl)c3)(C(F)(F)F)C2)cc1Cl (centres unmarked) [1-19]	100
CC(C)NC(=O)NCc1ccc(N2CCC(c3cc(C(F)(F)F)cc(C(F)(F)F)c3)(C(F)(F)F)C2)cc1C(F)(F)F (centres unmarked) [1-304]	100
CC(Br)C(=O)NCc1ccc(N2CCC(c3cc(Cl)cc(Cl)c3)(C(F)(F)F)C2)cc1Cl (centres unmarked) [1-458]	100
O=C(NCc1ccc(N2CCC(c3cc(Cl)cc(C(F)(F)F)c3)(C(F)(F)F)C2)cc1C(F)(F)F)C1CC1 (centres unmarked) [1-357]	100
O=C(CC(F)(F)F)NCc1cnc(N2CCC(c3cc(C(F)(F)F)cc(C(F)(F)F)c3)(C(F)(F)F)C2)nc1C(F)(F)F (centres unmarked) [3-150]	100
CC(=O)NCc1ccc(N2CCC(c3cc(C(F)(F)F)cc(C(F)(F)F)c3)(C(F)(F)F)C2)cc1[N+](=O)[O-] (centres unmarked) [1-317]	100
C=CCSCC(=O)NCc1ccc(N2CCC(c3cc(Cl)cc(Cl)c3)(C(F)(F)F)C2)cc1C(F)(F)F (centres unmarked) [1-503]	100
O=C(NCc1ccc(N2CCC(c3cc(Cl)cc(Cl)c3)(C(F)(F)F)C2)cc1Cl)C(F)F (centres unmarked) [1-21]	100
N#Cc1ccc(N2CCC(c3cc(Cl)c(Cl)c(Cl)c3)(C(F)(F)F)C2)cc1Cl (centres unmarked) [7-13]	100
C=CCSCC(=O)NCc1ccc(N2CCC(c3cc(C(F)(F)F)cc(C(F)(F)F)c3)(C(F)(F)F)C2)cc1C(F)(F)F (centres unmarked) [1-969]	100
CSCC(=O)NCc1ccc(N2CCC(c3cc(Cl)c(Cl)c(Cl)c3)(C(F)(F)F)C2)cc1C(F)(F)F (centres unmarked) [1-728]	100
O=C(NCc1ccc(N2CCC(c3cc(Cl)cc(Cl)c3)(C(F)(F)F)C2)cc1C(F)(F)F)NCC1CC1 (centres unmarked) [1-232]	100
CSCC(=O)NCc1ccc(N2CCC(c3cc(Cl)cc(Cl)c3)(C(F)(F)F)C2)cc1C(F)(F)F (centres unmarked) [1-186]	100
C#CCNC(=O)NCc1ccc(N2CCC(c3cc(Cl)cc(Cl)c3)(C(F)(F)F)C2)cc1Cl (centres unmarked) [1-88]	100
O=C(NCc1ccc(N2CCC(c3cc(Cl)cc(Cl)c3)(C(F)(F)F)C2)cc1Cl)C1CCC1 (centres unmarked) [1-8]	100
C[S+]([O-])CC(=O)NCc1ccc(N2CCC(c3cc(C(F)(F)F)cc(C(F)(F)F)c3)(C(F)(F)F)C2)cc1C(F)(F)F (centres unmarked) [1-967]	100
CCC(=O)NCc1ccc(N2CCC(c3cc(C(F)(F)F)cc(C(F)(F)F)c3)(C(F)(F)F)C2)cc1Br (centres unmarked) [1-312]	100
CN(Cc1ccc(N2CCC(c3cc(Cl)cc(Cl)c3)(C(F)(F)F)C2)cc1C(F)(F)F)C(=O)NC1CC1 (centres unmarked) [1-260]	100
O=C(NCC(F)(F)F)c1cnc(N2CCC(c3cc(C(F)(F)F)cc(C(F)(F)F)c3)(C(F)(F)F)C2)nc1C(F)(F)F (centres unmarked) [2-34]	100
CC(C)(C)OC(=O)NCc1ccc(N2CCC(c3cc(C(F)(F)F)cc(C(F)(F)F)c3)(C(F)(F)F)C2)cc1C(F)(F)F (centres unmarked) [1-300]	100
CCNC(=O)NCc1cnc(N2CCC(c3cc(Cl)c(Cl)c(Cl)c3)(C(F)(F)F)C2)cc1C(F)(F)F (centres unmarked) [1-381]	100

Structure (SMILES)	activity (100% means that all eggs are infertile) [%]
O=C(NCc1ccc(N2CCC(c3cc(Cl)cc(Cl)c3)(C(F)(F)F)C2)cc1C(F)(F)F)C1CCC1 (centres unmarked) [1-150]	100
O=C(CC(F)(F)F)NCc1ccc(N2CCC(c3cc(C(F)(F)F)cc(C(F)(F)F)c3)(C(F)(F)F)C2)cc1C(F)(F)F (centres unmarked) [1-296]	100
CC(=O)OCC(=O)NCc1ccc(N2CCC(c3cc(Cl)cc(Cl)c3)(C(F)(F)F)C2)cc1C(F)(F)F (centres unmarked) [1-188]	100
C=CCS(=O)(=O)CC(=O)NCc1ccc(N2CCC(c3cc(Cl)cc(Cl)c3)(C(F)(F)F)C2)cc1C(F)(F)F (centres unmarked) [1-505]	100
CCC(=O)NCc1ccc(N2CCC(c3cc(Cl)cc(Cl)c3)(C(F)(F)F)C2)cc1Br (centres unmarked) [1-285]	100
CCNC(=O)N(C)Cc1ccc(N2CCC(c3cc(Cl)cc(Cl)c3)(C(F)(F)F)C2)cc1Cl (centres unmarked) [1-113]	100
C=CCC(=O)NCc1ccc(N2CCC(c3cc(Cl)cc(Cl)c3)(C(F)(F)F)C2)cc1C(F)(F)F (centres unmarked) [1-180]	100
O=C(NCc1ccc(N2CCC(c3cc(Cl)cc(Cl)c3)(C(F)(F)F)C2)cc1Cl)C1CC1(F)F (centres unmarked) [1-25]	100
CS(=O)(=O)CC(=O)NCc1ccc(N2CCC(c3cc(Cl)c(Cl)c(Cl)c3)(C(F)(F)F)C2)cc1C(F)(F)F (centres unmarked) [1-730]	100
CC(=O)CC(=O)NCc1ccc(N2CCC(c3cc(C(F)(F)F)cc(C(F)(F)F)c3)(C(F)(F)F)C2)cc1C(F)(F)F (centres unmarked) [1-963]	100
CN(Cc1ccc(N2CCC(c3cc(Cl)cc(Cl)c3)(C(F)(F)F)C2)cc1Cl)C(=O)CC(F)(F)F (centres unmarked) [1-75]	100
CC(C)C(=O)NCc1ccc(N2CCC(c3cc(Cl)cc(Cl)c3)(C(F)(F)F)C2)cc1Cl (centres unmarked) [1-3]	100
COCC(=O)NCc1ccc(N2CCC(c3cc(Cl)cc(Cl)c3)(C(F)(F)F)C2)cc1Cl (centres unmarked) [1-40]	100
CCNC(=O)NCc1cnc(N2CCC(c3cc(Cl)c(Cl)c(Cl)c3)(C(F)(F)F)C2)nc1C(F)(F)F (centres unmarked) [3-145]	100
O=C(CC(F)(F)F)NCc1cnc(N2CCC(c3cc(Cl)c(Cl)c(Cl)c3)(C(F)(F)F)C2)nc1C(F)(F)F (centres unmarked) [3-144]	100
O=C(NCC(F)(F)F)c1sc(N2CCC(c3cc(Cl)cc(Cl)c3)(C(F)(F)F)C2)nc1C(F)(F)F (centres unmarked) [4-8]	100
O=C(NCc1ccc(N2CCC(c3cc(C(F)(F)F)cc(C(F)(F)F)c3)(C(F)(F)F)C2)cc1Cl)C1CC1 (centres unmarked) [1-308]	100
CC(=O)NCc1cnc(N2CCC(c3cc(Cl)c(Cl)c(Cl)c3)(C(F)(F)F)C2)nc1C(F)(F)F (centres unmarked) [3-141]	100
O=C(NCc1ccc(N2CCC(c3cc(Cl)c(Cl)c(Cl)c3)(C(F)(F)F)C2)cc1Br)C1CC1 (centres unmarked) [1-346]	100
O=C(NCc1ccc(N2CCC(c3cc(Cl)cc(Cl)c3)(C(F)(F)F)C2)cc1Cl)C1CC1(Cl)Cl (centres unmarked) [1-24]	100
